This note sets out measurements from ChEMBL document CHEMBL2429773, “Synthesis and antiseizure evaluation of isoindoline-1,3-dione derivatives in mice” (Med Chem Res, 2013).

For data set [1], the system named is Mus musculus. The data set is described as follows: Anticonvulsant activity in albino mouse assessed as protection against subcutaneous pentylenetetrazole-induced death measured as mortality at 30 mg/kg, ip after 0.5 hr. In kind it is functional. The note with it: sc, route intraperitoneal.
Data set [2] deals with Mus musculus. The data set is described as follows: Anticonvulsant activity against subcutaneous pentylenetetrazole-induced seizures in albino mouse assessed as onset of seizure time at 30 mg/kg, ip after 0.5 hr. The class given is functional. As to conditions: route intraperitoneal.
Data set [3] relates to Mus musculus. Description: Anticonvulsant activity in albino mouse assessed as protection against subcutaneous pentylenetetrazole-induced death measured as mortality at 100 mg/kg, ip after 0.5 hr. The class given is functional. The note with it: sc, route intraperitoneal.
Data set [4] deals with Mus musculus. The data set is described as follows: Anticonvulsant activity against subcutaneous pentylenetetrazole-induced seizures in albino mouse assessed as duration of seizure time at 100 mg/kg, ip after 0.5 hr. As to conditions: route intraperitoneal. The class given is functional.
Data set [5] has as its system Mus musculus. Description: Anticonvulsant activity in albino mouse assessed as protection against subcutaneous pentylenetetrazole-induced death measured as mortality at 300 mg/kg, ip after 0.5 hr. The class given is functional. As to conditions: sc, route intraperitoneal.
The subject of data set [6] is Mus musculus. Description: Anticonvulsant activity against maximal electroshock-induced seizures in albino mouse assessed as seizure at 100 mg/kg, ip after 0.5 hr. In kind it is functional. The note with it: route intraperitoneal. (Protection in the maximal electroshock model is a classic sign of anticonvulsant action.)
Data set [7] has as its system Mus musculus. Description: Anticonvulsant activity against subcutaneous pentylenetetrazole-induced seizures in albino mouse assessed as duration of seizure time at 30 mg/kg, ip after 0.5 hr. The class given is functional. The note with it: route intraperitoneal.
Data set [8] can be described thus: Neurotoxicity in ip dosed albino mouse measured after 30 mins by rotarod method. In kind it is toxicity, organism-based. The note with it: in vivo. (In general: The rotarod test checks motor coordination on a turning rod.)
Data set [9] concerns Mus musculus. The data set is described as follows: Anticonvulsant activity against subcutaneous pentylenetetrazole-induced seizures in albino mouse assessed as onset of seizure time at 100 mg/kg, ip after 0.5 hr. The class given is functional. The note with it: route intraperitoneal.
Data set [10] concerns Mus musculus. The data set is described as follows: Anticonvulsant activity in ip dosed albino mouse assessed as protection against maximal electroshock-induced seizures after 0.5 hr. In kind it is functional.
Data set [11] relates to Mus musculus. Description: Anticonvulsant activity against maximal electroshock-induced seizure in albino mouse assessed as seizures at 300 mg/kg, ip after 0.5 hr. The class given is functional. As to conditions: route intraperitoneal.
Data set [12] relates to Mus musculus. Description: Anticonvulsant activity against subcutaneous pentylenetetrazole-induced seizures in albino mouse assessed as seizure at 100 mg/kg, ip after 0.5 hr. In kind it is functional. As to conditions: route intraperitoneal.
The subject of data set [13] is Mus musculus. The data set is described as follows: Protective index, ratio of TD50 for neurotoxicity in ip dosed albino mouse to ED50 for anticonvulsant activity in ip dosed albino mouse. In kind it is functional.
Data set [14] deals with Mus musculus. The data set is described as follows: Anticonvulsant activity against subcutaneous pentylenetetrazole-induced seizures in albino mouse assessed as onset of seizure time at 300 mg/kg, ip after 0.5 hr. In kind it is functional. As to conditions: route intraperitoneal.
Data set [15] deals with Mus musculus. Description: Anticonvulsant activity against subcutaneous pentylenetetrazole-induced seizures in albino mouse assessed as duration of seizure time at 300 mg/kg, ip after 0.5 hr. The class given is functional. The note with it: route intraperitoneal.
In data set [16] the test system is Mus musculus. The data set is described as follows: Anticonvulsant activity against maximal electroshock-induced seizures in albino mouse assessed as seizure at 30 mg/kg, ip after 0.5 hr. In kind it is functional. The note with it: route intraperitoneal.

Regarding `O=C1c2ccccc2C(=O)N1c1cccc([N+](=O)[O-])c1`, the mortality at 30 mg/kg in the data set with Mus musculus [1] was found to be 100%. Besides, the Time stood at 3.5 min in the data set on Mus musculus [2]; 16.5 min with Mus musculus [4]; 6 min in the data set on Mus musculus [7]; 4.5 min with Mus musculus [9]; 10.5 min in the data set with Mus musculus [14]; 18.25 min in the data set with Mus musculus [15]. For the same molecule, the mortality at 100 mg/kg with Mus musculus [3] came to 100%. Besides, in the data set on Mus musculus [5], the mortality at 300 mg/kg came out at 75%. The Activity with Mus musculus [6] stood at 75%; in the data set on Mus musculus [11], 25%; with Mus musculus [12], 100%; in the data set on Mus musculus [16] it was 100%. Besides, the TD50 at 0.5 h in data set [8] is 74.2 mg/kg. Also, the ED50 with Mus musculus [10] was 174 mg/kg. For the same molecule, the “Ratio TD50/ED50” value in the data set on Mus musculus [13] is reported as 0.42.
For the molecule `O=C1c2ccccc2C(=O)N1c1ccccc1F`, the mortality at 30 mg/kg with Mus musculus [1] is 100%. Moreover, the Time in the data set with Mus musculus [2] stood at 2 min; with Mus musculus [4], 9 min; in the data set with Mus musculus [7] it was 5.5 min; in the data set on Mus musculus [9] it was 5 min; in the data set on Mus musculus [14] it was 4.75 min; in the data set with Mus musculus [15] it was 12 min. Moreover, the mortality at 100 mg/kg in the data set with Mus musculus [3] was 100%. Also, the mortality at 300 mg/kg in the data set with Mus musculus [5] was 75%. Further, the Activity in the data set with Mus musculus [6] was determined as 75%; in the data set on Mus musculus [11], 0%; in the data set with Mus musculus [12] it was 100%; with Mus musculus [16] it was 100%. Further, in data set [8], the TD50 at 0.5 h was determined as 233 mg/kg. In addition, the ED50 with Mus musculus [10] is above 300 mg/kg. The “Ratio TD50/ED50” value in the data set on Mus musculus [13] is recorded as below 0.77.

In general, mortality refers to the share of the test organisms that died. What is called TD50 is the 50% point of the dose-response relation for the toxic effect studied. Low values mean harm at a small dose, high ones harm only at a large dose. Usually ED50 stands for the dose that gives a 50% effect, or the effect in half of the subjects.
